How the values were obtained:
Assay type in all cases: in vivo
[1] = tested on: Matricaria inodora (MATIN); assay: Post-emergence herbicidal action, greenhouse pot test (also comparative test C)
Method in brief: (§1)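 Greenhouse pot plants in sandy loam were sprayed post-emergence at the one-leaf stage (2–3 weeks after sowing) with WP or EC formulations plus 0.5% additive at 600 l/ha water. Activity was rated visually after about 3 weeks versus untreated controls (100% = dead, 0% = like control); rates were 20 g/ha or less, and 5 g/ha or less in the comparative test.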

Setaria viridis (SETVI) = assay: as above
Method in brief: as §1

[2] = tested on: Echinochloa crus-galli (ECHCG); assay: as above
Method in brief: as §1

[3] = tested on: Alopecurus myosuroides (ALOMY); assay: as above; conditions: rated visually after about 3 weeks vs untreated controls, 100% = plants have died
Method in brief: as §1

[4] = tested on: Amaranthus retroflexus (AMARE); assay: Post-emergence herbicidal action, greenhouse pot test; conditions: rated visually after about 3 weeks vs untreated controls, 100% = plants have died
Method in brief: (§2)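 Activity was scored by eye about 3 weeks after treatment against untreated plants, where 100% means dead plants and 0% means no difference. Plants at the one-leaf stage received a foliar spray of WP or EC formulations in water plus 0.5% additive (600 l/ha, up to 20 g/ha). Plants were grown in sandy loam pots in a greenhouse for 2–3 weeks before spraying.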

[5] = tested on: Pharbitis purpurea (PHBPU); assay: as above
Method in brief: as §2

Avena fatua (AVEFA) = assay: as above; conditions: rated visually after about 3 weeks vs untreated controls, 100% = plants have died
Method in brief: as §2

Veronica persica (VERPE) = assay: as above
Method in brief: as §2

[6] = tested on: Polygonum convolvulus (POLCO); assay: as above
Method in brief: as §2

Viola tricolor (VIOTR) = assay: as above
Method in brief: as §2

[7] = tested on: Abutilon theophrasti (ABUTH); assay: as above; conditions: rated visually after about 3 weeks vs untreated controls, 100% = plants have died
Method in brief: as §2

Oryza sativa (ORYSA) = assay: Post-emergence crop plant compatibility, greenhouse pot test (also comparative test C); conditions: vs untreated controls
Method in brief: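 Visual damage versus untreated plants (0% = like control, 100% = plants died) was scored about 3 weeks after a post-emergence spray in greenhouse pots. Treatment: one-leaf stage, WP or EC in water at 600 l/ha with 0.5% additive; a/b/c mark different dosages on the same crop.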

Zea mays (ZEAMX) = assay: Post-emergence crop plant compatibility, greenhouse pot test; conditions: 1.25 g/ha, vs untreated controls
Method in brief: (§3)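 Compatibility was scored as visual % effect against untreated controls about 3 weeks after spraying green plant parts at the one-leaf stage. Formulations (WP/EC) were applied in aqueous form with 0.5% additive, 600 l/ha, to greenhouse-grown pot plants.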

[8] = tested on: Triticum aestivum (TRZAS); assay: as above; conditions: vs untreated controls
Method in brief: as §3

## Cn1c(C(F)(F)F)cc(=O)n(-c2cc(Oc3ccccc3OCC(=O)OCc3cccnn3)c(Cl)cc2F)c1=O [I.7-291]
[1]; dosage 5 g/ha
  Post-emergence action against MATIN in %: 100%
[1]; dosage 20 g/ha
  Post-emergence action against MATIN in %: 100%
Setaria viridis (SETVI); 20 g/ha
  Post-emergence action against SETVI: 100%
Setaria viridis (SETVI); dosage 1.25 g/ha
  Post-emergence action against SETVI in %: 100%
Setaria viridis (SETVI); dosage 5 g/ha
  Post-emergence action against SETVI in %: 100%
[2]; dosage 5 g/ha
  Post-emergence action against ECHCG in %: 100%
[2]; dosage 20 g/ha
  Post-emergence action against ECHCG in %: 100%
[3]; 5 g/ha
  Post-emergence action at 5 g/ha against ALOMY in %: 80%
[3]; 20 g/ha
  Post-emergence action at 20 g/ha against ALOMY in %: 100%
[4]; 1.25 g/ha
  Post-emergence action at 1.25 g/ha against AMARE in %: 100%
[4]; 5 g/ha
  Post-emergence action at 5 g/ha against AMARE in %: 100%
[4]; 20 g/ha
  Post-emergence action at 20 g/ha against AMARE in %: 100%
[5]; dosage 1.25 g/ha
  Post-emergence action against PHBPU in %: 100%
[5]; dosage 5 g/ha
  Post-emergence action against PHBPU in %: 100%
[5]; dosage 20 g/ha
  Post-emergence action against PHBPU in %: 100%
Avena fatua (AVEFA); 20 g/ha
  Post-emergence action at 20 g/ha against AVEFA in %: 100%
Veronica persica (VERPE); 5 g/ha
  Post-emergence action against VERPE: 100%
Veronica persica (VERPE); 20 g/ha
  Post-emergence action against VERPE: 100%
[6]; dosage 20 g/ha
  Post-emergence action against POLCO in %: 100%
Viola tricolor (VIOTR); 1.25 g/ha
  Post-emergence action against VIOTR: 100%
Viola tricolor (VIOTR); 5 g/ha
  Post-emergence action against VIOTR: 100%
Viola tricolor (VIOTR); 20 g/ha
  Post-emergence action against VIOTR: 100%
[7]; 1.25 g/ha
  Post-emergence action at 1.25 g/ha against ABUTH in %: 100%
[7]; 5 g/ha
  Post-emergence action at 5 g/ha against ABUTH in %: 100%
[7]; 20 g/ha
  Post-emergence action at 20 g/ha against ABUTH in %: 100%
Oryza sativa (ORYSA); 1.25 g/ha
  Post-emergence action against ORYSA (crop plant compatibility): 20%
Zea mays (ZEAMX)
  Post-emergence action against ZEAMX (crop plant compatibility): 10%
[8]; 1.25 g/ha
  Post-emergence action against TRZAS (crop plant compatibility): 0%
[8]; 5 g/ha
  Post-emergence action against TRZAS (crop plant compatibility): 0%

## Cn1c(C(F)(F)F)cc(=O)n(-c2cc(Oc3ccccc3OCC(=O)OCC#N)c(C#N)cc2F)c1=O [I.9-176, Cyanomethyl (2-{2-cyano-4-fluoro-5-[3-methyl-2,6-dioxo-4-(trifluoromethyl)-3,6-dihydropyrimidin-1(2H)-yl]phenoxy}phenoxy)acetate]
[1]; Tripleurospermum inodorum, 504 h, dosage 5 g/ha, read-out: Post-emergence action against MATIN in %
  pest or weed control at 5 g/ha: 100%
[1]; Tripleurospermum inodorum, 504 h, dosage 20 g/ha, read-out: Post-emergence action against MATIN in %
  pest or weed control at 20 g/ha: 100%
Setaria viridis (SETVI); Setaria viridis, 504 h, 20 g/ha, read-out: Post-emergence action against SETVI
  pest or weed control at 20 g/ha: 100%
Setaria viridis (SETVI); Setaria viridis, 504 h, dosage 1.25 g/ha, read-out: Post-emergence action against SETVI in %
  pest or weed control at 1.25 g/ha: 100%
Setaria viridis (SETVI); Setaria viridis, 504 h, dosage 5 g/ha, read-out: Post-emergence action against SETVI in %
  pest or weed control at 5 g/ha: 100%
[2]; 1.25 g/ha, rated visually after about 3 weeks vs untreated controls, 100% = plants have died
  Post-emergence action at 1.25 g/ha against ECHCG in %: 100%
[2]; Echinochloa crus-galli, 504 h, dosage 5 g/ha, read-out: Post-emergence action against ECHCG in %
  pest or weed control at 5 g/ha: 100%
[2]; Echinochloa crus-galli, 504 h, dosage 20 g/ha, read-out: Post-emergence action against ECHCG in %
  pest or weed control at 20 g/ha: 100%
[3]; Alopecurus myosuroides, 504 h, 5 g/ha, read-out: Post-emergence action at 5 g/ha against ALOMY in %
  pest or weed control at 5 g/ha: 100%
[3]; Alopecurus myosuroides, 504 h, 20 g/ha, read-out: Post-emergence action at 20 g/ha against ALOMY in %
  pest or weed control at 20 g/ha: 100%
[4]; Amaranthus retroflexus, 504 h, 1.25 g/ha, read-out: Post-emergence action at 1.25 g/ha against AMARE in %
  pest or weed control at 1.25 g/ha: 100%
[4]; Amaranthus retroflexus, 504 h, 5 g/ha, read-out: Post-emergence action at 5 g/ha against AMARE in %
  pest or weed control at 5 g/ha: 100%
[4]; Amaranthus retroflexus, 504 h, 20 g/ha, read-out: Post-emergence action at 20 g/ha against AMARE in %
  pest or weed control at 20 g/ha: 100%
[5]; Ipomoea purpurea, 504 h, dosage 5 g/ha, read-out: Post-emergence action against PHBPU in %
  pest or weed control at 5 g/ha: 100%
[5]; Ipomoea purpurea, 504 h, dosage 20 g/ha, read-out: Post-emergence action against PHBPU in %
  pest or weed control at 20 g/ha: 100%
Avena fatua (AVEFA); 5 g/ha
  Post-emergence action at 5 g/ha against AVEFA in %: 80%
Avena fatua (AVEFA); Avena fatua, 504 h, 20 g/ha, read-out: Post-emergence action at 20 g/ha against AVEFA in %
  pest or weed control at 20 g/ha: 80%
Veronica persica (VERPE); Veronica persica, 504 h, 1.25 g/ha, read-out: Post-emergence action against VERPE
  pest or weed control at 1.25 g/ha: 100%
Veronica persica (VERPE); Veronica persica, 504 h, 5 g/ha, read-out: Post-emergence action against VERPE
  pest or weed control at 5 g/ha: 100%
Veronica persica (VERPE); Veronica persica, 504 h, 20 g/ha, read-out: Post-emergence action against VERPE
  pest or weed control at 20 g/ha: 100%
[6]; Fallopia convolvulus, 504 h, dosage 20 g/ha, read-out: Post-emergence action against POLCO in %
  pest or weed control at 20 g/ha: 100%
Viola tricolor (VIOTR); Viola tricolor, 504 h, 1.25 g/ha, read-out: Post-emergence action against VIOTR
  pest or weed control at 1.25 g/ha: 100%
Viola tricolor (VIOTR); Viola tricolor, 504 h, 5 g/ha, read-out: Post-emergence action against VIOTR
  pest or weed control at 5 g/ha: 100%
Viola tricolor (VIOTR); Viola tricolor, 504 h, 20 g/ha, read-out: Post-emergence action against VIOTR
  pest or weed control at 20 g/ha: 100%
[7]; Abutilon theophrasti, 504 h, 1.25 g/ha, read-out: Post-emergence action at 1.25 g/ha against ABUTH in %
  pest or weed control at 1.25 g/ha: 100%
[7]; Abutilon theophrasti, 504 h, 5 g/ha, read-out: Post-emergence action at 5 g/ha against ABUTH in %
  pest or weed control at 5 g/ha: 100%
[7]; Abutilon theophrasti, 504 h, 20 g/ha, read-out: Post-emergence action at 20 g/ha against ABUTH in %
  pest or weed control at 20 g/ha: 100%
Oryza sativa (ORYSA); 1.25 g/ha
  Post-emergence action against ORYSA (crop plant compatibility): 0%
Oryza sativa (ORYSA); 5 g/ha
  Post-emergence action against ORYSA (crop plant compatibility): 20%
Zea mays (ZEAMX)
  Post-emergence action against ZEAMX (crop plant compatibility): 0%
[8]; 1.25 g/ha
  Post-emergence action against TRZAS (crop plant compatibility): 0%
[8]; 5 g/ha
  Post-emergence action against TRZAS (crop plant compatibility): 20%

## Cn1c(C(F)(F)F)cc(=O)n(-c2cc(Oc3ccccc3OCC(=O)OCCOC(F)(F)F)c(C#N)cc2F)c1=O [I.9-41]
[1]; dosage 1.25 g/ha
  Post-emergence action against MATIN in %: 100%
[1]; dosage 5 g/ha
  Post-emergence action against MATIN in %: 100%
[1]; dosage 20 g/ha
  Post-emergence action against MATIN in %: 100%
Setaria viridis (SETVI); 20 g/ha
  Post-emergence action against SETVI: 100%
Setaria viridis (SETVI); dosage 1.25 g/ha
  Post-emergence action against SETVI in %: 100%
Setaria viridis (SETVI); dosage 5 g/ha
  Post-emergence action against SETVI in %: 100%
[2]; dosage 5 g/ha
  Post-emergence action against ECHCG in %: 80%
[2]; dosage 20 g/ha
  Post-emergence action against ECHCG in %: 100%
[3]; 20 g/ha
  Post-emergence action at 20 g/ha against ALOMY in %: 80%
[4]; 1.25 g/ha
  Post-emergence action at 1.25 g/ha against AMARE in %: 100%
[4]; 5 g/ha
  Post-emergence action at 5 g/ha against AMARE in %: 100%
[4]; 20 g/ha
  Post-emergence action at 20 g/ha against AMARE in %: 100%
[5]; dosage 1.25 g/ha
  Post-emergence action against PHBPU in %: 100%
[5]; dosage 5 g/ha
  Post-emergence action against PHBPU in %: 100%
[5]; dosage 20 g/ha
  Post-emergence action against PHBPU in %: 100%
Avena fatua (AVEFA); 20 g/ha
  Post-emergence action at 20 g/ha against AVEFA in %: 80%
Veronica persica (VERPE); 5 g/ha
  Post-emergence action against VERPE: 100%
Veronica persica (VERPE); 20 g/ha
  Post-emergence action against VERPE: 100%
[6]; dosage 5 g/ha
  Post-emergence action against POLCO in %: 90%
[6]; dosage 20 g/ha
  Post-emergence action against POLCO in %: 100%
Viola tricolor (VIOTR); 1.25 g/ha
  Post-emergence action against VIOTR: 90%
Viola tricolor (VIOTR); 5 g/ha
  Post-emergence action against VIOTR: 100%
Viola tricolor (VIOTR); 20 g/ha
  Post-emergence action against VIOTR: 100%
[7]; 1.25 g/ha
  Post-emergence action at 1.25 g/ha against ABUTH in %: 100%
[7]; 5 g/ha
  Post-emergence action at 5 g/ha against ABUTH in %: 100%
[7]; 20 g/ha
  Post-emergence action at 20 g/ha against ABUTH in %: 100%
Oryza sativa (ORYSA); 1.25 g/ha
  Post-emergence action against ORYSA (crop plant compatibility): 0%
Oryza sativa (ORYSA); 5 g/ha
  Post-emergence action against ORYSA (crop plant compatibility): 0%
Zea mays (ZEAMX)
  Post-emergence action against ZEAMX (crop plant compatibility): 10%
[8]; 1.25 g/ha
  Post-emergence action against TRZAS (crop plant compatibility): 0%
[8]; 5 g/ha
  Post-emergence action against TRZAS (crop plant compatibility): 10%
[8]; 20 g/ha
  Post-emergence action against TRZAS (crop plant compatibility): 20%
